Measured values as given in publication PMC7988117, “OMN6 a novel bioengineered peptide for the treatment of multidrug resistant Gram negative bacteria” (Scientific Reports, 2021).
Read-outs that look alike come from different tables or passages of the source.

What was measured:
A. baumannii BAA-1793 = settings: determined by ATCC according to CLSI guidelines, ref ATCC; cited from earlier work
Text: Supplement 41598_2021_86155_MOESM1_ESM.docx, table 3: Table S3. Supplementary information about the resistance pattern of the bacterial strain A. baumannii BAA-1793 used in the Minimum Inhibitory Concentration study presented in Table 1.

[1] = system: Acinetobacter baumannii clinical isolates; assay: Time-kill studies; assay type: cell-based; settings: Difco Muller Hinton Broth
Description: Time-kill experiments were performed by JMI Laboratories (North Liberty, IA, USA) as described in chapter 5.14 of the Clinical Microbiology Procedures Handbook[32] and the CLSI M26-A[33] document. Two Acinetobacter baumannii clinical isolates (JMI colistin-sensitive strain #1088100 and colistin-resistant strain #1001007) were used for this study. MIC values that were determined in Difco Muller Hinton Broth (BD) for OMN6 and colistin as described above, were used as the baseline values during time-kill testing. In the time-kill experiments, OMN6 and colistin were tested in Difco Muller Hinton Broth. The time-kill cultures were sampled at 0, 2, 4, 8, and 24 h after compound addition. The number of CFU/mL in each culture was measured by plating 100 μL of serial dilutions onto blood agar plates. Colonies were counted after 48 h of growth at 35 °C. Time-kill curves were generated by plotting CFU/mL as log10 values over time. The limit of detection was 10 CFU/mL. Bactericidal activity was defined as a ≥ 99.9% reduction (i.e., a ≥ 3 log10 decrease) in the number of input bacterial cells at any arbitrary timepoint.

Acinetobacter baumannii = settings: Difco Muller Hinton Broth, data not shown
Description: (§1) This experiment was conducted by Omnix Medical, by JMI Laboratories (North Liberty, IA, USA) and by Aptuit (Verona) S.r.l. (Italy), an Evotec Company. All studies were performed according to Clinical and Laboratory Standards Institute guidelines[30] for the application of the broth microdilution method. Reference strains from American Type Culture Collection (ATCC) and clinical isolates from the Evotec EvostrAIn and the JMI Laboratories SENTRY surveillance program culture collections (Acinetobacter baumannii: ACC 00445, ACC 00527, ACC 00535, ATCC 17978, ATCC 19606, ATCC BAA-1793, ACC 01076, ACC 01077, NCTC 13420, JMI #1088100 and JMI #1001007; Klebsiella pneumoniae: ATCC 43816 and ATCC BAA-1705; Escherichia coli: ACC 01001 and ATCC 25922; Staphylococcus aureus: ATCC 29213, ATCC BAA-44 and ATCC 33591; Bacillus cereus: ATCC 14579; Enterococcus faecalis: ATCC 29212; Enterococcus faecium: ATCC BAA-2319) were used. The antimicrobial activity of OMN6 was determined by 12 serial two-fold dilutions in water of the 100-fold highest compound solution; 1 µL of each well was transferred into 96 microtiter plates (final concentration: 256–0.12 µg/mL). In most strains, same procedure was used to determine the colistin antimicrobial activity (final concentration: 32–0.015 µg/mL). Bacterial strains were sub-cultured on the agar plates and incubated for 18–24 h at 35 ± 2 °C in ambient air. Following incubation, the inoculum was prepared from isolated colonies and adjusted to 0.5 McFarland turbidity standard (1 to 2 × 10^8 colony-forming units/mL) in 0.9% saline. Bacterial suspension was then diluted 1:200 in Muller-Hinton broth (from BD; Becton, Dickinson and Company, Franklin Lakes, NJ, USA) and within 15 min 100 µL/well were dispensed. Growth-control wells and sterility-check wells (uninoculated well) were present in each plate. Plates were incubated for 18–24 h at 35 ± 2 °C in ambient air. […] The antimicrobial activity to other antibiotics on most bacterial strains was determined by Evotec using the antimicrobial sensitive test from the VITEK 2 automated microbiology system (bioMérieux SA, Marcy l'Etoile, France; data presented in Table S1), or by ATCC according to CLSI (Clinical and Laboratory Standards Institute) guidelines[30]

E. faecium BAA-2319 = settings: determined by ATCC according to CLSI guidelines, ref ATCC; cited from earlier work
Text: Supplement 41598_2021_86155_MOESM1_ESM.docx, table 2: Table S2. Supplementary information about the resistance pattern of the bacterial strain E. faecium BAA-2319 used in the Minimum Inhibitory Concentration study presented in Table 1.

Staphylococcus aureus = assay: VITEK 2 antimicrobial sensitivity characterization; assay type: cell-based; settings: VITEK 2 system, CLSI ranges
Description: as §1
Table S1. Supplementary information about the resistance pattern of 14 bacterial strains used in the Minimum Inhibitory Concentration study presented in Table 1. The resistance pattern of the different bacterial isolates was characterized by broth microdilution studies (for colistin) or with the VITEK 2 system (for the other antibiotics).

CO[C@@]1(NC(=O)Cc2cccs2)C(=O)N2C(C(=O)O)=C(COC(N)=O)CS[C@@H]21 [Cefoxitin]
Resistance pattern (A. baumannii BAA-1793): R

CCN1CCN(C(=O)N[C@@H](C(=O)N[C@@H]2C(=O)N3[C@@H]2SC(C)(C)[C@@H]3C(=O)O)c2ccccc2)C(=O)C1=O [Piperacillin]
Resistance pattern (A. baumannii BAA-1793): R

COCC1=C(C(=O)O)N2C(=O)[C@@H](NC(=O)/C(=N\OC)c3csc(N)n3)[C@H]2SC1 [Cefpodoxime]
Resistance pattern (A. baumannii BAA-1793): R

CO/N=C(\C(=O)N[C@@H]1C(=O)N2C(C(=O)O)=C(CSc3nc(=O)c(=O)[nH]n3C)CS[C@H]12)c1csc(N)n1 [Ceftriaxone]
Resistance pattern (A. baumannii BAA-1793): R

colistin
Concentrations with bactericidal effect ([1]; colistin-resistant A. baumannii JMI #1001007, bactericidal = ≥ 3 log10 decrease): 16 to 32 µg/mL
Concentrations with bactericidal effect after 2 h of incubation ([1]; colistin-sensitive A. baumannii JMI #1088100, bactericidal = ≥ 3 log10 decrease): > 0.25 µg/mL
Re-growth during the 24 h timeframe ([1]; colistin-sensitive A. baumannii JMI #1088100, sampled 0, 2, 4, 8, 24 h): No re-growth
MIC colistin value (Acinetobacter baumannii; A. baumannii JMI #1001007 colistin-resistant strain): 8 µg/mL
MIC colistin value (Acinetobacter baumannii; A. baumannii JMI #1088100 colistin-sensitive strain): 0.5 µg/mL

CC1(C)S[C@@H]2[C@H](NC(=O)[C@H](C(=O)O)c3ccsc3)C(=O)N2[C@H]1C(=O)O [Ticarcillin]
Resistance pattern (A. baumannii BAA-1793): R

CO/N=C(\C(=O)N[C@@H]1C(=O)N2C(C(=O)[O-])=C(C[N+]3(C)CCCC3)CS[C@H]12)c1csc(N)n1 [Cefepime]
Resistance pattern (A. baumannii BAA-1793): R

CCn1cc(C(=O)O)c(=O)c2ccc(C)nc21 [Nalidixic Acid]
Resistance pattern (A. baumannii BAA-1793): R

NCC[C@H](O)C(=O)N[C@@H]1C[C@H](N)[C@@H](O[C@H]2O[C@H](CN)[C@@H](O)[C@H](O)[C@H]2O)[C@H](O)[C@H]1O[C@H]1O[C@H](CO)[C@@H](O)[C@H](N)[C@H]1O [Amikacin]
Resistance pattern (A. baumannii BAA-1793): S

C[C@@H](O)[C@H]1C(=O)N2C(C(=O)O)=C(S[C@@H]3CN[C@H](C(=O)N(C)C)C3)[C@H](C)[C@H]12 [Meropenem]
Resistance pattern (A. baumannii BAA-1793): R

CN(C)[C@@H]1C(O)=C(C(N)=O)C(=O)[C@@]2(O)C(O)=C3C(=O)c4c(O)cccc4[C@@](C)(O)[C@H]3C[C@@H]12 [TET, tetracycline]
Resistance pattern (A. baumannii BAA-1793): R
Resistance pattern (E. faecium BAA-2319): R
VITEK characterization (resistance range) (Staphylococcus aureus; S. aureus ATCC 29213): S
VITEK characterization (resistance range) (Staphylococcus aureus; S. aureus ATCC 33591): R

CC(=O)OCC1=C(C(=O)O)N2C(=O)[C@@H](NC(=O)Cc3cccs3)[C@H]2SC1 [Cefalotin]
Resistance pattern (A. baumannii BAA-1793): R

CO[C@@]1(NC(=O)C2SC(=C(C(N)=O)C(=O)O)S2)C(=O)N2C(C(=O)O)=C(CSc3nnnn3C)CS[C@@H]21 (stereo partly shown) [Cefotetan]
Resistance pattern (A. baumannii BAA-1793): R

CO/N=C(\C(=O)N[C@@H]1C(=O)N2C(C(=O)OC(C)OC(C)=O)=C(COC(N)=O)CS[C@H]12)c1ccco1 (stereo partly shown) [Cefuroxime Axetil]
Resistance pattern (A. baumannii BAA-1793): R

CCn1cc(C(=O)O)c(=O)c2cc(F)c(N3CCNCC3)cc21 [Norfloxacin]
Resistance pattern (A. baumannii BAA-1793): R

CO/N=C(\C(=O)N[C@@H]1C(=O)N2C(C(=O)O)=CCS[C@H]12)c1csc(N)n1 [Ceftizoxime]
Resistance pattern (A. baumannii BAA-1793): R

CC1(C)S[C@@H]2[C@H](NC(=O)[C@H](N)c3ccccc3)C(=O)N2[C@H]1C(=O)O [Ampicillin]
Resistance pattern (A. baumannii BAA-1793): R
Resistance pattern (E. faecium BAA-2319): R

CO/N=C(\C(=O)N[C@@H]1C(=O)N2C(C(=O)O)=C(COC(N)=O)CS[C@H]12)c1ccco1 [Cefuroxime]
Resistance pattern (A. baumannii BAA-1793): R

CCC[C@@H]1C[C@@H](C(=O)N[C@@H]([C@H]2O[C@H](SC)[C@H](O)[C@@H](O)[C@H]2O)[C@H](C)Cl)N(C)C1 [CLI, clindamycin]
VITEK characterization (resistance range) (Staphylococcus aureus; S. aureus ATCC 29213): S
VITEK characterization (resistance range) (Staphylococcus aureus; S. aureus ATCC 33591): R

C[C@H]1[C@H](NC(=O)/C(=N\OC(C)(C)C(=O)O)c2csc(N)n2)C(=O)N1S(=O)(=O)O [Aztreonam]
Resistance pattern (A. baumannii BAA-1793): R

CN(C)c1cc(NC(=O)CNC(C)(C)C)c(O)c2c1C[C@H]1C[C@H]3[C@H](N(C)C)C(O)=C(C(N)=O)C(=O)[C@@]3(O)C(O)=C1C2=O [Tigecycline]
Resistance pattern (A. baumannii BAA-1793): S
Resistance pattern (E. faecium BAA-2319): S

CC1(C)S[C@@H]2[C@H](NC(=O)Cc3ccccc3)C(=O)N2[C@H]1C(=O)O [Benzylpenicillin]
Resistance pattern (E. faecium BAA-2319): R

COc1c(N2C[C@@H]3CCCN[C@@H]3C2)c(F)cc2c(=O)c(C(=O)O)cn(C3CC3)c12 [Moxifloxacin]
Resistance pattern (A. baumannii BAA-1793): R

CN[C@H](CC(C)C)C(=O)N[C@H]1C(=O)N[C@@H](CC(N)=O)C(=O)N[C@H]2C(=O)N[C@H]3C(=O)N[C@H](C(=O)N[C@H](C(=O)O)c4cc(O)cc(O)c4-c4cc3ccc4O)[C@H](O)c3ccc(c(Cl)c3)Oc3cc2cc(c3O[C@@H]2O[C@H](CO)[C@@H](O)[C@H](O)[C@H]2O[C@H]2C[C@](C)(N)[C@H](O)[C@H](C)O2)Oc2ccc(cc2Cl)[C@H]1O [VAN, vancomycin]
Resistance pattern (E. faecium BAA-2319): R
VITEK characterization (resistance range) (Staphylococcus aureus; S. aureus ATCC 29213): S
VITEK characterization (resistance range) (Staphylococcus aureus; S. aureus ATCC 33591): S

Cc1onc(-c2ccccc2)c1C(=O)N[C@@H]1C(=O)N2[C@@H]1SC(C)(C)[C@@H]2C(=O)O [OXA, oxacillin]
VITEK characterization (resistance range) (Staphylococcus aureus; S. aureus ATCC 29213): S
VITEK characterization (resistance range) (Staphylococcus aureus; S. aureus ATCC 33591): R

CC[C@H]1OC(=O)[C@H](C)[C@@H](O[C@H]2C[C@@](C)(OC)[C@@H](O)[C@H](C)O2)[C@H](C)[C@@H](O[C@@H]2O[C@H](C)C[C@H](N(C)C)[C@H]2O)[C@](C)(O)C[C@@H](C)C(=O)[C@H](C)[C@@H](O)[C@]1(C)O [ERY, erythromycin]
Resistance pattern (E. faecium BAA-2319): R
VITEK characterization (resistance range) (Staphylococcus aureus; S. aureus ATCC 29213): S
VITEK characterization (resistance range) (Staphylococcus aureus; S. aureus ATCC 33591): R

O=C1CN(/N=C/c2ccc([N+](=O)[O-])o2)C(=O)N1 [Nitrofurantoin]
Resistance pattern (A. baumannii BAA-1793): R
Resistance pattern (E. faecium BAA-2319): R

C[C@H]1COc2c(N3CCN(C)CC3)c(F)cc3c(=O)c(C(=O)O)cn1c23 [Levofloxacin]
Resistance pattern (E. faecium BAA-2319): R

Cc1nnc(SCC2=C(C(=O)O)N3C(=O)[C@@H](NC(=O)Cn4cnnn4)[C@H]3SC2)s1 [Cefazolin]
Resistance pattern (A. baumannii BAA-1793): R

NC[C@H]1O[C@H](O[C@H]2[C@H](O)[C@@H](O[C@H]3O[C@H](CO)[C@@H](O)[C@H](N)[C@H]3O)[C@H](N)C[C@@H]2N)[C@H](N)C[C@@H]1O [Tobramycin]
Resistance pattern (A. baumannii BAA-1793): R
